Experiment: Human HepG2 cell viability assay in 384 well format
Type: toxicity, cell-based
Design: dose 125 nL, time 70.5 hour; concentration not given beside the values
Conditions: HepG2 cells, read-out: Inhibition

SMILES | cytotoxicity at 70.5 h [%]
CN(CCc1ccccc1)Cc1nc(-c2cnccn2)no1 | -8.36
CSc1ccccc1C(=O)C1CCCN(Cc2ccccn2)C1 (stereo unspecified) | -2.76
CCN(CCOc1ccc(F)cc1)C(=O)c1ccncc1Cl | -2.29
COCC(O)CNC(=O)c1cc(COc2ccc3c(c2)CCCC3)on1 (stereo unspecified) | -4.42
CC(CCN1CCC(n2cc(CCO)nn2)CC1)c1ccccc1 (stereo unspecified) | -8.84
CCN1CC(CN(C)Cc2nc(-c3cccc(Cl)c3)oc2C)CC1=O (stereo unspecified) | -6.94
O=C(CCc1cc(Cl)no1)N1CCN(CCn2cncn2)CC1 | -0.942
COc1cccc2c1OCC(NCCCOc1cccnc1)C2 (stereo unspecified) | -5.15
CCC(C)NC(=O)c1coc(COc2cccc(F)c2)n1 (stereo unspecified) | -3.12
CC(=O)N1CCCC(C(=O)NCCc2nc(Cc3ccccc3)no2)C1 (stereo unspecified) | -13.3
CSCc1noc(CNC(=O)C2CCN(C(=O)C3CC3)CC2)n1 | -17.4
Cc1cc2nc(C(C)C)cc(N3CCC(O)CC3)n2n1 | -9.55
COCCN(Cc1cnn(C)c1)CC1CCOC1 (stereo unspecified) | -6.85
CCc1c(C(=O)N2CCC3(CC(=O)NC3=O)C2)csc1C (stereo unspecified) | -5.51
CCN1CCN(C[C@@H]2CN(c3ncccc3F)C[C@@H]2CO)CC1 | 23.4
NS(=O)(=O)c1ccc(F)c(C(=O)NCCSc2ccccn2)c1 | -4.06
COCCCC1CCN([C@@H]2c3ccccc3C3(CCNCC3)[C@H]2O)CC1 | -1.24
COc1cccc(-n2cc(-c3ccnc(N[C@@H](CO)C(C)C)n3)cn2)c1 | 13.3
Cc1cccc2[nH]c(C3CCN(C(=O)c4cnc[nH]c4=O)CC3)nc12 | -1.84
CC(C)(C)C(=O)N1CCCC1c1ccc(C(=O)N2CCOCC2)s1 (stereo unspecified) | 16.2
CCNc1ncc(C(=O)NCCNc2ccncc2C)cn1 | 3.69
COc1ccc(Cc2nc3c([nH]2)CC(C)(C)CNC3=O)cc1OC | -8.64
CCCc1cc(C(=O)N2CCC3(CC2)CN(CCN(C)C)C(=O)O3)no1 | -0.0862

SMILES | cytotoxicity at 70.5 h [%]
CN(C)C(=O)c1cn2cc(-c3cccc(Cl)c3)n(CC3CC3)c(=O)c2n1 | -5.52
CSc1ccccc1C(=O)N(C)C1CCCN(CCc2ccccc2)C1 (stereo unspecified) | -5.22
COC(=O)NCC(=O)N1CCCn2nc(CN3CC[C@H](F)C3)cc2C1 | -3.88
O=C(N[C@H]1CN(c2nc(CO)cs2)C[C@@H]1C1CC1)C1CCCCC1 | -6.79
COc1ccccc1-n1nc(-c2ccco2)n(CC(=O)NC2CC2)c1=O | 10.2
Cc1cc(NCc2ccc(C#N)cc2)n2nc(C)cc2n1 | -4.7
CC(C)N1CCC(C(=O)N2CCN(c3cccc(C(=O)O)c3)CC2)CC1 | -9.74
O=C(c1cccnc1-c1ccoc1)N1C[C@H]2CC[C@@H]1C2 | -10.4
CN1C[C@@H](n2cnc(-c3ccccc3)c2-c2ccccn2)C[C@H]1C(=O)O | -10
CN(Cc1n[nH]c2c1CCCC2)c1nc2c(c(=O)[nH]1)CCNCC2 | -4.95
COc1cccc(C(C(=O)O)N2CCCN(c3ccnc(C)c3)CC2)c1 (stereo unspecified) | -7.15
COc1ccc2nc(CNC(=O)C3CC4(CCNCC4)CN3C)[nH]c2c1 (stereo unspecified) | -20.5
COc1cc(C)cc(OC)c1C(C(=O)O)N(C)Cc1c(C)nn(C)c1C (stereo unspecified) | -14.7
COC(=O)c1cc(OCC2CCC2)cc(C(=O)NCC(C)(C)O)c1 | -4.36
Cc1ccc2c(c1)SCC(=O)N2Cc1noc(C2CCCO2)n1 (stereo unspecified) | -11.5
CCn1c(C)nnc1SCCn1cc(-c2nccs2)nn1 | -7.44
Cc1ccc(N2CCCN(CC3CC3)C(C(C)C)C2)nn1 (stereo unspecified) | -14.3
CC(C)(C)c1cn(C2CCN(C3CCSC3)CC2)nn1 (stereo unspecified) | -7.05
O=C(CCN1CCCCO1)NC1CCCN(CC2CCCCC2)C1 (stereo unspecified) | -8.52
CS(=O)(=O)NCC1(O)CCCN(C(=O)CCn2cc(Cl)cn2)CC1 (stereo unspecified) | -1.38
Cc1nn(C)c(C)c1CN(Cc1cccn1-c1ncccn1)C(C)C | 3.54
Cc1cc(C(=O)NCCC2CN(C)CCO2)c2cccc(C)c2n1 (stereo unspecified) | -11.4
CCC(Nc1cccc(OC)c1)C(=O)NCc1ccc2c(c1)OCO2 (stereo unspecified) | -8.45

SMILES | cytotoxicity at 70.5 h [%]
CCc1oc(C(=O)NC(C)Cc2cnccn2)cc1CN1CCCC1 (stereo unspecified) | -14.2
C[C@@H]1CN(C2(C(=O)N(C)C)Cc3ccccc3C2)C[C@H](C)O1 | 13.4
Cc1cc(C)n(C2CN(C(=O)c3cn4ccsc4n3)C2)n1 | 2.53
CC(=O)N1C[C@@H]2CC[C@H](C1)N(S(=O)(=O)c1ccccc1Cl)C2 | -14.4
Cc1ccc(CNC(=O)c2cc(Cn3ccnc3C(C)C)[nH]n2)o1 | 20.2
CCN(Cc1noc(C2CCC2)n1)C(=O)c1cn2ccsc2n1 | 14.6
CC(Nc1ncnc2c1CCNCC2)c1nc2c(s1)CCCC2 (stereo unspecified) | -5.82
O=C(Nc1ccc(F)c(Cl)c1)N1CCCN([C@H]2COC[C@@H]2O)CC1 | -14.1
Cc1cccnc1CCNC(=O)[C@@]12CNC[C@@H]1CN(S(C)(=O)=O)C2 | -1.74
CCC1CCN(CCn2cnc3c(C)csc3c2=O)CC1 | -6.08
Cc1cccc2c1nc(COCC(=O)O)n2-c1cnc(N)cn1 | -4.53
CCC(CC)CN1CCC(n2cc(C3CCCC3)nn2)CC1 | -3.87
FC(F)(F)CCc1ccnc(NCc2csc(N3CCOCC3)n2)n1 | -10.4
COc1ccc(CC2CN(C(=O)c3ocnc3C)CCO2)cc1 (stereo unspecified) | 14.4
CN(CCn1ccnc1-c1ccccn1)S(C)(=O)=O | 11.9
c1ccc(Oc2nccc3occc23)c(CN2CCCCC2)c1 | 6.4
Cc1ccc2nc(C(=O)N3CCNC(=O)C3c3cccc(F)c3)cn2c1 (stereo unspecified) | 24.1
O=c1[nH]c(-c2ccc(F)cc2)nc2c1CCNC2 | -0.466
CCNC(=O)[C@@H]1C[C@H](N)CN1Cc1ccc(-c2ccccc2C#N)o1 | 9.56
COCCCC1CCCCN1S(=O)(=O)c1cccc(C#N)c1 (stereo unspecified) | 4.41
COCC1(NC(=O)C(c2ccc(F)cc2)N(C)C)CCCC1 (stereo unspecified) | 7.27
CCc1cc(-c2ccnc3c2ccn3C)nc(N2CCOCC2)n1 | 1.11
CCN(CC)S(=O)(=O)N1C[C@@H]2CC[C@H](C1)N(Cc1cscn1)C2=O | -9.09

SMILES | cytotoxicity at 70.5 h [%]
O=C1N(CCO)CCCC12CCN(Cc1nnc(C3CC3)o1)C2 (stereo unspecified) | 0.803
CNCCNc1ccc(-c2nc(-c3cccc(OC)c3OC)no2)cn1 | -2.42
O=C(c1ccc(F)c(F)c1)N1CCC(Cn2cc(CO)nn2)CC1 | -3.06
NC(=O)CCn1cc(CNCCCc2csc(N)n2)c2ccccc21 | -6.3
Cc1nc(-c2c(-c3ccccc3)ncn2[C@H]2C[C@@H](C(=O)O)N(C)C2)co1 | -11.1
COCCN1C(=O)[C@H]2CC[C@@H]1CN(C(=O)Cc1c(F)cccc1Cl)C2 | -8.61
CC(C)c1nccn1C(C)C(=O)N1CCN(c2cnccn2)CC1 (stereo unspecified) | -11.1
CCc1nnc(CN(C)c2nccc(CCC(F)(F)F)n2)o1 | -9.32
COc1ccc(CNC2CCCc3nc(N(C)C)ncc32)c(OC)c1 (stereo unspecified) | -8.28
Cc1cccnc1CN(C)C(C(=O)O)c1ccc(-c2ccn[nH]2)cc1 (stereo unspecified) | -3.62
COc1cnc(CN2CCN(CC(C)C)C(=O)C2C)cc1O (stereo unspecified) | 0.0157
COCC(=O)N(Cc1cccc(C)c1)Cc1ccccc1OC | -4.3
Cc1cc(C2CCC2)nc(NCC(C)(C)N2CCOCC2)n1 | 15.4
COc1coc(CN2CCCC3(CCC(=O)N(C4CC4)C3)C2)cc1=O (stereo unspecified) | -12.4
Cc1[nH]c2ccc(CNc3cc(C#N)ccn3)cc2c1C | -4.75
CC(C)Cn1cncc1CNC(=O)c1cccc(Cn2cccn2)c1 | -5.12
Cc1nn(CCN2CCSCC2)cc1CNCC1CC1 | -14.6
CO[C@H]1CN(Cc2cc(Cn3cncn3)c(C)cc2C)CC[C@H]1N | 6.57
O=C1CC2(CCCC2)CN1CCOc1ccc(F)cc1 | -9.74
Cc1ncc(C)c(N2Cc3cnn(Cc4ccc(F)cc4)c3C2)n1 | 13
Cn1ncc(N2CCC(CNC(=O)[C@@H](N)c3ccccc3)CC2)cc1=O | -4.64
C=C(C)COc1cccc(CN(CC)Cc2noc(C)n2)c1 | -0.0989
N[C@@H]1CCN(Cc2cccc(N3CCOCC3)c2)C[C@H]1O | 26.8

SMILES | cytotoxicity at 70.5 h [%]
CCCn1cc(C(=O)NC2CCN(CC(=O)NC3CC3)CC2)c(C)n1 | 0.264
CCNc1ncc(C2CC(=O)Nc3c2cnn3Cc2ccncc2)cn1 (stereo unspecified) | 5.87
Cc1nc(CNCc2cccc(OC34CCCN(CC3)C4)c2)n[nH]1 (stereo unspecified) | -3.22
Cc1nc2c(c(NCCc3nc(C)c(Cl)s3)n1)CCNCC2 | -11
O=C1N(Cc2ccc(F)c(F)c2)CCCC12CCN(C1CCCC1)C2 (stereo unspecified) | -2.62
CCc1ccc(CNC[C@H]2C[C@@H](CO)N(C)[C@H]2c2ccccc2F)o1 | -2.04
Cc1c(C)c(C)c2[nH]c(-c3cn(C4CCNCC4)nn3)nc2c1C | -5.74
CCc1cc(NCCNc2ccncc2C)n2nc(C)c(C)c2n1 | -1.4
Cc1cc(C)n2ncc(CN3CCC(Cn4cc(CO)nn4)CC3)c2n1 | 0.595
CNC(=O)Cc1ccc(-n2ccnc2-c2cccc(C(=O)O)c2)cc1 | 17.5
CN1CCC(N(CCc2ccccc2)Cc2noc(C3CC3)n2)CC1 | -12.8
Nc1cnc(-c2ccc(F)cc2Cl)cn1 | 10.8
CN1CCC(N(C)CCC(=O)N2CCN(Cc3cccc(F)c3)CC2)C1 (stereo unspecified) | -0.236
C=C(C)COc1ccccc1CN1CCC(C(=O)NCC)C1 (stereo unspecified) | -7.01
NCC1CCN(c2cnn(CCCn3cccn3)c(=O)c2)CC1 | -8.18
CNC(=O)[C@@H]1C[C@H](N)CN1Cc1cc2cc(OC)ccc2nc1O | -8.56
Cn1c(CCNC(=O)CC[C@@H]2CCCN3CCCC[C@H]23)n[nH]c1=O | -14.7
Cc1cccc(CN2CCCC(O)(CNCc3cccc(F)c3)C2=O)c1 (stereo unspecified) | -5.44
CS(=O)(=O)c1ccc(-c2cc(O)cc(CCC3CCCCN3)c2)cc1 (stereo unspecified) | -7.28

— ChEMBL document CHEMBL3507680, “University of Dundee, Gates Library screen for HepG2 cell viability”
